According to US20250051335A1, “TAU-TUBULIN KINASE (TTBK) INHIBITOR COMPOUNDS” (CONSEJO SUPERIOR DE INVESTIGACIONES CIENTÍFICAS (CSIC), priority 2021, published 2025):

How the values were obtained:
[1] = Permeability of the blood-brain barrier by PAMPA (porcine brain lipid); conditions: for Prediction of crossing the BBB: based on Ep correlated with 10 control drugs; for Papp at 2.5 h: pig, pH 7.4
[2] = target: recombinant human enzyme TTBK1 (1-1321) (Homo sapiens (Human), UniProt Q5TCY1); test: Enzymatic inhibition of TTBK1 (33P-ATP radiometric kinase assay); type: biochemical; conditions: recombinant human TTBK1 (1-1321), 0.005 mM ATP, 30 minutes at room temperature
Procedure: (§1) The final reaction mixture contains the peptide at a concentration of 0.3 mM, 10 mM magnesium acetate and 0.005 mM [33P-γ-ATP](50-1000 cpm/pmol). The reaction mixture is incubated for 30 minutes at room temperature and the reaction is stopped after the addition of 5 μl of orthophosphoric acid.

[3] = target: recombinant human enzyme TTBK2(1-450) (Homo sapiens (Human), UniProt Q6IQ55); test: Enzymatic inhibition of TTBK2 (33P-ATP radiometric kinase assay); type: biochemical; conditions: recombinant human TTBK2(1-450), 0.005 mM ATP, 30 minutes at room temperature
Procedure: as §1

recombinant human enzyme TTBK2(1-450), sequence (Q6IQ55 1-450): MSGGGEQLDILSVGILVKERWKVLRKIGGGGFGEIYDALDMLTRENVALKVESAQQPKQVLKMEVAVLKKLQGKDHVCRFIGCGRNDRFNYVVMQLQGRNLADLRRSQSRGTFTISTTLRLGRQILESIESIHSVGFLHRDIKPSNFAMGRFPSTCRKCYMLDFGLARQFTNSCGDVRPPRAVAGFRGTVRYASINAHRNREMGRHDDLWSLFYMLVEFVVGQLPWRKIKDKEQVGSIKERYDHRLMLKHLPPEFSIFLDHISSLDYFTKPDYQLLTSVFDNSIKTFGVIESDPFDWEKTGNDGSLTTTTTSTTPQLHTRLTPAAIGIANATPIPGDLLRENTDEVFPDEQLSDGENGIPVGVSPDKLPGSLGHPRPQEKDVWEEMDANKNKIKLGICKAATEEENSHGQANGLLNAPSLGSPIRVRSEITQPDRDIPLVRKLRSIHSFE
recombinant human enzyme TTBK1 (1-1321), sequence (Q5TCY1 whole entry): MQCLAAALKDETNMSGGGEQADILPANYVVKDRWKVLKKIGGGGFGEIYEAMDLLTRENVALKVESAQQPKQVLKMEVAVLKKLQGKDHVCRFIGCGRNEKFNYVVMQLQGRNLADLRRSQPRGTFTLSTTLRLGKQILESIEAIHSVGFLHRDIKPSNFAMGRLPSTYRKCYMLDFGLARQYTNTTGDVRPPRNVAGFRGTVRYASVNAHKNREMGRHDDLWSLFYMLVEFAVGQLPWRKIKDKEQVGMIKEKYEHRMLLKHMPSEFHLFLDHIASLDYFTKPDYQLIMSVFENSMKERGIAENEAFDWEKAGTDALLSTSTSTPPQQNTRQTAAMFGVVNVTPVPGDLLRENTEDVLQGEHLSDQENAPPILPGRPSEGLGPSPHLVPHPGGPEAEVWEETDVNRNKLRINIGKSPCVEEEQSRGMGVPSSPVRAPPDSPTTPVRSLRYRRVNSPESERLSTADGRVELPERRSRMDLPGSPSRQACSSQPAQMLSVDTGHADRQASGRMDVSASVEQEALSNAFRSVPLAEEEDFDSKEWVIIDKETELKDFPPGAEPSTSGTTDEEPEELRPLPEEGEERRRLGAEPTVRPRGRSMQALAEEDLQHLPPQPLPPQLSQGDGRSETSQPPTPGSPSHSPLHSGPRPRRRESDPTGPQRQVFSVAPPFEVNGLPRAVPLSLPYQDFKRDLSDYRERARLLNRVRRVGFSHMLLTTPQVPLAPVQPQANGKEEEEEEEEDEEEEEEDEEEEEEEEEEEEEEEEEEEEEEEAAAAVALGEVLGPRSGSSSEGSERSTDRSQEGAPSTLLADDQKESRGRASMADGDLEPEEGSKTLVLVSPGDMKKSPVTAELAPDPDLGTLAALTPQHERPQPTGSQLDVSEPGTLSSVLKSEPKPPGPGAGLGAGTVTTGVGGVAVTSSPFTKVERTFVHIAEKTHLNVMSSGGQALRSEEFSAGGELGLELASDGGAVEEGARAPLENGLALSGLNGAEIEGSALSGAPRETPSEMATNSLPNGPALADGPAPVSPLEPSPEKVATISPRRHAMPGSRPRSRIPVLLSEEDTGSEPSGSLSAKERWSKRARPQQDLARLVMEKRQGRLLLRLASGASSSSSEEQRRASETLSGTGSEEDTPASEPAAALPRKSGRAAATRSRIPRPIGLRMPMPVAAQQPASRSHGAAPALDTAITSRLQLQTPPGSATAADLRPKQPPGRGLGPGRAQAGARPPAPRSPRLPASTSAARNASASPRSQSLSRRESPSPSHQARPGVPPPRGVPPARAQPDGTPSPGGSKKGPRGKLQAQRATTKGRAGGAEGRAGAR

| SMILES | Prediction of crossing the BBB [1] | Papp at 2.5 h [1] | IC50 [2] | IC50 [3] |
| --- | --- | --- | --- | --- |
| c1ccc(Oc2ccc(Nc3ncnc4[nH]ccc34)cc2)cc1 [Compound 1, N-(4-phenoxyphenyl)-7H-pyrrolo[2,3-d]pyrimidin-4-amine] | CNS+ | 23.2 ± 1.4 ×10⁻⁶ cm/s |  |  |
| Clc1ccc(Oc2ccc(Nc3ncnc4[nH]ccc34)cc2)cc1 [Compound 2, N-[4-(4-chlorophenoxy)phenyl]-7H-pyrrolo[2,3-d]pyrimidin-4-amine] | CNS+ | 11.5 ± 1 ×10⁻⁶ cm/s |  |  |
| Fc1ccc(Oc2ccc(Nc3ncnc4[nH]ccc34)cc2)cc1 [Compound 3, N-[4-(4-fluorophenoxy)phenyl]-7H-pyrrolo[2,3-d]pyrimidin-4-amine] | CNS+ | 15.6 ± 1.3 ×10⁻⁶ cm/s | 0.77 ± 0.14 µM | 3.02 ± 0.82 µM |
| FC(F)(F)c1ccc(Oc2ccc(Nc3ncnc4[nH]ccc34)cc2)cc1 [Compound 6, N-[4-(4-trifluoromethylphenoxy)phenyl]-7H-pyrrolo[2,3-d]pyrimidin-4-amine] | CNS+ | 7.6 ± 1.4 ×10⁻⁶ cm/s |  |  |
| Cc1cccc(Oc2ccc(Nc3ncnc4[nH]ccc34)cc2)c1 [Compound 11, N-[4-(3-methylphenoxy)phenyl]-7H-pyrrolo[2,3-d]pyrimidin-4-amine] | CNS+ | 14 ± 0.4 ×10⁻⁶ cm/s |  |  |
| Clc1cccc(Oc2ccc(Nc3ncnc4[nH]ccc34)cc2)c1 [Compound 12, N-[4-(3-chlorophenoxy)phenyl]-7H-pyrrolo[2,3-d]pyrimidin-4-amine] | CNS+ | 8.4 ± 1.6 ×10⁻⁶ cm/s |  | > 100 µM |
| FC(F)(F)c1cccc(Oc2ccc(Nc3ncnc4[nH]ccc34)cc2)c1 [Compound 13, N-[4-(3-trifluoromethylphenoxy)phenyl]-7H-pyrrolo[2,3-d]pyrimidin-4-amine] | CNS+ | 6.8 ± 1.4 ×10⁻⁶ cm/s |  |  |
| Clc1ccc(Oc2ccc(Nc3ncnc4[nH]ccc34)cc2)c(Cl)c1 [Compound 16, N-[4-(2.4-chlorophenoxy)phenyl]-7H-pyrrolo[2,3-d]pyrimidin-4-amine] | CNS+ | 17.3 ± 0.1 ×10⁻⁶ cm/s | 2.3 ± 0.54 µM | 5.72 ± 2.65 µM |
| COc1cccc(Oc2ccc(Nc3ncnc4[nH]ccc34)cc2)c1 [Compound 17, N-[4-(3-methoxyphenoxy)phenyl]-7H-pyrrolo[2,3-d]pyrimidin-4-amine] | CNS+ | 10.5 ± 0.7 ×10⁻⁶ cm/s |  |  |
| Nc1nc(Nc2ccc(Oc3ccc(C(F)(F)F)cc3)cc2)c2cc[nH]c2n1 [Compound 18, N4-(4-(4-(trifluoromethyl)phenoxy)phenyl]-7H-pyrrolo[2,3-d]pyrimidine-2,4-diamine] | CNS+ | 7.5 ± 0.1 ×10⁻⁶ cm/s | 0.58 ± 0.08 µM | 4.49 ± 1.16 µM |
| Nc1nc(Nc2ccc(Oc3cccc(C(F)(F)F)c3)cc2)c2cc[nH]c2n1 [Compound 19, N4-(4-(3-(trifluoromethyl)phenoxy)phenyl]-7H-pyrrolo[2,3-d]pyrimidine-2,4-diamine] | CNS+ | 7.7 ± 0.6 ×10⁻⁶ cm/s | 1.32 ± 0.04 µM | 3.9 ± 0.48 µM |
| Nc1nc(Nc2ccc(Oc3ccc(Cl)cc3)cc2)c2cc[nH]c2n1 [Compound 20, N4-(4-(4-chlorophenoxy)phenyl]-7H-pyrrolo[2,3-d]pyrimidine-2,4-diamine] | CNS+ | 9.7 ± 1 ×10⁻⁶ cm/s |  |  |
| Nc1nc(Nc2ccc(Oc3cccc(Cl)c3)cc2)c2cc[nH]c2n1 [Compound 21, N4-(4-(3-chlorophenoxy)phenyl)-7H-pyrrolo[2,3-d]pyrimidine-2,4-diamine] | CNS+ | 14.1 ± 0.4 ×10⁻⁶ cm/s | 0.37 ± 0.12 µM | 3.05 ± 0.07 µM |
| Nc1ccc(Sc2ccc(Nc3ncnc4[nH]ccc34)cc2)cc1 [Compound 23, N-[4-((4-aminophenyl)thio)phenyl]-7H-pyrrolo[2,3-d]pyrimidin-4-amine] | CNS+ | 4.7 ± 0.5 ×10⁻⁶ cm/s |  |  |
| c1ccc(COc2ccc(Nc3ncnc4[nH]ccc34)cc2)cc1 [Compound 24, N-[4-(benzyloxy)phenyl]-7H-pyrrolo[2,3-d]pyrimidin-4-amine] | CNS+ | 18.3 ± 1.2 ×10⁻⁶ cm/s |  |  |

Further lines, with some results ahead:

| Prediction of crossing the BBB [1] | Papp at 2.5 h [1] | SMILES | IC50 [2] | IC50 [3] |
| --- | --- | --- | --- | --- |
| CNS+ | 11.8 ± 0.3 ×10⁻⁶ cm/s | COc1ccc(Oc2ccc(Nc3ncnc4[nH]ccc34)cc2)cc1 [Compound 5, N-[4-(4-methoxyphenoxy)phenyl]-7H-pyrrolo[2,3-d]pyrimidin-4-amine] |  |  |
| CNS+ | 11 ± 1.2 ×10⁻⁶ cm/s | Brc1ccc(Oc2ccc(Nc3ncnc4[nH]ccc34)cc2)cc1 [Compound 7, N-[4-(4-bromophenoxy)phenyl]-7H-pyrrolo[2,3-d]pyrimidin-4-amine] |  |  |
| CNS+ | 14.3 ± 1.1 ×10⁻⁶ cm/s | O=[N+]([O-])c1ccc(Oc2ccc(Nc3ncnc4[nH]ccc34)cc2)cc1 [Compound 8, N-[4-(4-nitrophenoxy)phenyl]-7H-pyrrolo[2,3-d]pyrimidin-4-amine] |  |  |
| CNS+ | 18.7 ± 1.4 ×10⁻⁶ cm/s | Cc1ccc(Oc2ccc(Nc3ncnc4[nH]ccc34)cc2)cc1 [Compound 10, N-[4-(4-methylphenoxy)phenyl]-7H-pyrrolo[2,3-d]pyrimidin-4-amine] |  |  |
| CNS+ | 9.7 ± 1 ×10⁻⁶ cm/s | Clc1ccccc1Oc1ccc(Nc2ncnc3[nH]ccc23)cc1 [Compound 14, N-[4-(2-chlorophenoxy)phenyl]-7H-pyrrolo[2,3-d]pyrimidin-4-amine] |  |  |
| CNS+ | 6.9 ± 0.6 ×10⁻⁶ cm/s | O=C(c1ccccc1)c1ccc(Nc2ncnc3[nH]ccc23)cc1 [Compound 25, (4-((7H-pyrrolo[2,3-d]pyrimidin-4-yl)amino)phenyl](phenyl)methanone] |  |  |
| CNS+ | 9.4 ± 0.4 ×10⁻⁶ cm/s | O=C(c1ccc(F)cc1)c1ccc(Nc2ncnc3[nH]ccc23)cc1 [Compound 26, (4-((7H-pyrrolo[2,3-d]pyrimidin-4-yl)amino)phenyl](4-fluorophenyl)methanone] |  |  |
